In patent publication US7053105B2, “Farnesyl transferase inhibiting quinoline and quinazoline derivatives as farnesyl transferase inhibitors” (Janssen Pharmaceutica, N.V., priority 2000, dated 2006):

Row | melting point | SMILES
1 | 80 °C | Cn1cncc1C(O)(c1ccc(Cl)cc1)c1ccc2nc(/C=C/C(N)=O)cc(-c3cccc(Cl)c3)c2c1 (racemic) [Example B11, (±)-(E)-3-[4-(3-chlorophenyl)-6-[(4-chlorophenyl)hydroxy(1-methyl-1H-imidazol-5-yl)methyl]-2-quinolinyl]-2-propenamide]
2 | 205 °C | Cn1cncc1C(O)(c1ccc(Cl)cc1)c1ccc2nc(C=NO)cc(-c3cccc(Cl)c3)c2c1 (racemic) [Example B1, (±)-4-(3-chlorophenyl)-6-[(4-chlorophenyl)hydroxy(1-methyl-1H-imidazol-5-yl)methyl]-2-quinolinecarboxaldehyde, oxime]
3 | 235 °C | Cn1cncc1C(O)(c1ccc(Cl)cc1)c1ccc2nc(N)nc(-c3cccc(Cl)c3)c2c1 (stereo not drawn) [Example B19, 2-amino-4-(3-chlorophenyl)-α-(4-chlorophenyl)-α-(1-methyl-1H-imidazol-5-yl)-6-quinazolinemethanol]
4 | 142 °C | CSc1nnc(C(O)(c2ccc(Cl)cc2)c2ccc3nc(C)cc(-c4cccc(Cl)c4)c3c2)n1C (stereo not drawn) [Example B14b, 4-(3-chlorophenyl)-α-(4-chlorophenyl)-2-methyl-α-[4-methyl-5-(methylthio)-4H-1,2,4-triazol-3-yl]-6-quinolinemethanol]

The remaining lines, values behind:

Row | SMILES | melting point
5 | Cc1cc(-c2cccc(Cl)c2)c2cc(C(O)(c3ccc(Cl)cc3)c3nnc(S)n3C)ccc2n1 (stereo not drawn) [Example B14a, 4-(3-chlorophenyl)-α-(4-chlorophenyl)-α-(5-mercapto-4-methyl-4H-1,2,4-triazol-3-yl)-2-methyl-6-quinolinemethanol] | 166 °C
6 | Cn1cncc1C(O)(c1ccc(Cl)cc1)c1ccc2nc(-c3cccnc3)nc(-c3cccc(Cl)c3)c2c1 (stereo not drawn) [Example B26, 4-(3-chlorophenyl)-α-(4-chlorophenyl)-α-(1-methyl-1H-imidazol-5-yl)-2-(3-pyridinyl)-6-quinazolinemethanol] | 178 °C
7 | Cc1nc(-c2cccc(Cl)c2)c2cc(C(O)(c3ccc(Cl)cc3)c3cncn3C)ccc2n1 (stereo not drawn) [Example B13, 4-(3-chlorophenyl)-α-(4-chlorophenyl)-2-methyl-α-(1-methyl-1H-imidazol-5-yl)-6-quinazolinemethanol] | 223 °C
8 | Cn1cncc1-c1nc(-c2cccc(Cl)c2)c2cc(C(O)(c3ccc(Cl)cc3)c3cncn3C)ccc2n1 (stereo not drawn) [Example B6, 4-(3-chlorophenyl)-α-(4-chlorophenyl)-α,2-bis(1-methyl-1H-imidazol-5-yl)-6-quinazolinemethanol] | 160 °C
9 | Cc1cc(-c2cccc(Cl)c2)c2cc(C(O)(c3ccc(Cl)cc3)c3nncn3C)ccc2n1.O (centres unmarked) (hydrate or solvate) | 150 °C
10 | Cn1cncc1C(O)(c1ccc(Cl)cc1)c1ccc2nc(C#Cc3ccccc3)cc(-c3cccc(Cl)c3)c2c1 (stereo not drawn) [Example B25, 4-(3-chlorophenyl)-α-(4-chlorophenyl)-α-(1-methyl-1H-imidazol-5-yl)-2-(phenylethynyl)-6-quinolinemethanol] | 154 °C
11 | CSc1nnc(C(N)(c2ccc(Cl)cc2)c2ccc3nc(C)cc(-c4cccc(Cl)c4)c3c2)n1C (stereo not drawn) [Example B16b, 4-(3-chlorophenyl)-α-(4-chlorophenyl)-2-methyl-α-[4-methyl-5-(methylthio)-4H-1,2,4-triazol-3-yl]-6-quinolinemethanamine] | 128 °C
